Test results published in ChEMBL document CHEMBL1811842, “Synthesis and evaluation of biotinylated sansalvamide A analogs and their modulation of Hsp90” (Bioorg Med Chem Lett, 2011).
The source made the active and inactive calls. No cut-off for these calls is given here.

Biological target: Heat shock protein HSP90 (Homo sapiens) (UniProt P07900+P08238)
Experiment: Binding affinity to human HSP90-N-Middle Domain expressed in BL21 Escherichia coli after 2 hrs using silver staining by Pull down assay

| Activity | Structure (SMILES) |
| --- | --- |
| Active | CC(C)C[C@@H]1NC(=O)[C@H](CCCCNC(=O)OCc2ccccc2)NC(=O)[C@H](CCCCNC(=O)CCOCCOCCOCCOCCNC(=O)CCCC[C@@H]2SC[C@@H]3NC(=O)N[C@@H]32)NC(=O)[C@@H](Cc2ccccc2)N(C)C(=O)[C@H](C(C)C)NC1=O |
| Active | CC(C)[C@@H]1NC(=O)[C@H](CCCCNC(=O)CCOCCOCCOCCOCCNC(=O)CCCC[C@@H]2SC[C@@H]3NC(=O)N[C@@H]32)NC(=O)[C@H](CCCCNC(=O)OCc2ccccc2)NC(=O)[C@H](Cc2ccccc2)NC(=O)[C@@H](Cc2ccccc2)N(C)C1=O |
| Active | CC(C)C[C@@H]1NC(=O)[C@H](CCCCNC(=O)OCc2ccccc2)NC(=O)[C@H](Cc2ccccc2)NC(=O)[C@@H](Cc2ccccc2)N(C)C(=O)[C@H](CCCCNC(=O)CCOCCOCCOCCOCCNC(=O)CCCC[C@@H]2SC[C@@H]3NC(=O)N[C@@H]32)NC1=O |
